In the case of `NC(=O)c1ccc(N/C(=C2\C(=O)Nc3ccccc32)c2ccccc2)cc1` [Example 20, (Z)-3-[1-(4-aminocarbonyl-phenylamino)-1-phenyl-methylidene]-2-indolinone], the melting point is reported as 321 to 323 °C.
`COCCNCC(=O)N(C)c1ccc(N/C(=C2\C(=O)Nc3ccccc32)c2ccccc2)cc1` [Example 371, (Z)-3-{1-[4-(N-(2-methoxyethylaminomethylcarbonyl)-N-methyl-amino)-phenylamino]-1-phenyl-methylidene}-2-indolinone] showed a melting point of 186 to 188 °C.
With `CC(C)(C)OC(=O)NCc1ccc(N/C(=C2\C(=O)Nc3ccc([N+](=O)[O-])cc32)c2ccccc2)cc1` [Example 113, (Z)-3-[1-(4-tert.butoxycarbonylaminomethyl-phenylamino)-1-phenyl-methylidene]-5-nitro-2-indolinone] the melting point was 234 to 236 °C (dec.).
For `CCNCc1ccc(N/C(=C2\C(=O)Nc3ccc([N+](=O)[O-])cc32)c2ccccc2)cc1` [Example 160, (Z)-3-[1-(4-ethylaminomethyl-phenylamino)-1-phenyl-methylidene]-5-nitro-2-indolinone], the melting point was 220 to 223 °C.
With `CCC(=O)N(CC(=O)NC)c1ccc(N/C(=C2\C(=O)Nc3ccccc32)c2ccccc2)cc1` [Example 358, (Z)-3-{1-[4-(N-methylaminocarbonylmethyl-N-propionyl-amino)-phenylamino]-1-phenyl-methylidene}-2-indolinone] the melting point was 268 °C.
For `COC(=O)C(N)Cc1ccc(N/C(=C2\C(=O)Nc3ccc([N+](=O)[O-])cc32)c2ccccc2)cc1.Cl` (centres unmarked), the melting point was 215 °C (dec.).
Work on `COC(=O)CCNC(=O)c1ccc(/C(Nc2ccc(CN3CCCCC3)cc2)=C2/C(=O)Nc3ccc([N+](=O)[O-])cc32)cc1` [Example 447, (Z)-3-[1-(4-piperidinomethyl-phenylamino)-1-(4-(2-methoxycarbonyl-ethylaminocarbonyl)-phenyl)-methylidene]-5-nitro-2-indolinone] yielded a melting point of 130 °C.
Compound `CN(C)CCCOc1ccc(N/C(=C2\C(=O)Nc3ccccc32)c2ccccc2)cc1` [Example 286, (Z)-3-{1-[4-(3-dimethylaminopropyloxy)-phenylamino]-1-phenyl-methylidene}-2-indolinone] has a melting point of 215 to 217 °C.
Work on `O=C1Nc2ccc([N+](=O)[O-])cc2/C1=C(/Nc1ccc(CN2CCC2)cc1)c1ccccc1` [Example 273, (Z)-3-{1-[4-(Azetidin-1-yl-methyl)-phenylamino]-1-phenyl-methylidene}-5-nitro-2-indolinone] yielded a melting point of 228 to 229 °C.
For `CCS(=O)(=O)N(CCCN(C)C)c1ccc(N/C(=C2\C(=O)Nc3ccccc32)c2ccccc2)cc1` [Example 316, (Z)-3-{1-[4-(N-(3-dimethylaminopropyl)-N-ethylsulphonyl-amino)-phenylamino]-1-phenyl-methylidene}-2-indolinone], the melting point was 194 °C.
For `CN(Cc1ccccc1)Cc1ccc(N/C(=C2\C(=O)Nc3ccc([N+](=O)[O-])cc32)c2ccccc2)cc1` [Example 238, (Z)-3-{1-[4-(N-benzyl-N-methyl-aminomethyl)-phenylamino]-1-phenyl-methylidene}-5-nitro-2-indolinone], the melting point was 200 to 201 °C.
With `Cl.NCc1ccc(N/C(=C2\C(=O)Nc3ccc([N+](=O)[O-])cc32)c2ccccc2)cc1` the melting point was over 370 °C.
`CS(=O)(=O)N(CCN1CCOCC1)c1cccc(N/C(=C2\C(=O)Nc3ccccc32)c2ccccc2)c1` [Example 325, (Z)-3-{1-[3-(N-(2-morpholinoethyl)-N-methylsulphonyl-amino)-phenylamino]-1-phenyl-methylidene}-2-indolinone] showed a melting point of 177 to 179 °C.
Work on `CN(C)C(=O)COc1ccc(N/C(=C2\C(=O)Nc3ccccc32)c2ccccc2)cc1` [Example 291, (Z)-3-{1-[4-(dimethylaminocarbonylmethyloxy)-phenylamino]-1-phenyl-methylidene}-2-indolinone] yielded a melting point of 224 to 226 °C.
Compound `CCOC(=O)C1CCN(CCc2ccc(N/C(=C3\C(=O)Nc4ccc([N+](=O)[O-])cc43)c3ccccc3)cc2)CC1` [Example 262, (Z)-3-{1-[4-(2-(4-ethoxycarbonyl-piperidino)-ethyl)-phenylamino]-1-phenyl-methylidene}-5-nitro-2-indolinone] has a melting point of 208 to 213 °C.
In the case of `CCN(CC)S(=O)(=O)c1ccc(N/C(=C2\C(=O)Nc3ccccc32)c2ccccc2)cc1` [Example 398, (Z)-3-{1-[4-(diethylaminosulphonyl)-phenylamino]-1-phenyl-methylidene}-2-indolinone], the melting point is reported as 252 to 254 °C.
For `CN(Cc1ccccc1)Cc1ccc(N/C(=C2\C(=O)Nc3ccc([N+](=O)[O-])cc32)c2ccc(Cn3ccnc3)cc2)cc1` [Example 440, (Z)-3-{1-[4-(N-benzyl-N-methyl-aminomethyl)-phenylamino]-1-[4-(imidazol-1-ylmethyl)-phenyl]-methylidene}-5-nitro-2-indolinone], the melting point was 195 to 198 °C.
`CC(C)(C)OC(=O)NCc1ccc(N/C(=C2\C(=O)Nc3ccc([N+](=O)[O-])cc32)c2ccc(CN)cc2)cc1` [Example 148, (Z)-3-[1-(4-tert.butoxycarbonylaminomethyl-phenylamino)-1-(4-aminomethyl-phenyl)-methylidene]-5-nitro-2-indolinone] gave a melting point of 220 to 223 °C.
`O=C1Nc2ccccc2/C1=C(/Nc1ccc(NS(=O)(=O)CCN2CCCCC2)cc1)c1ccccc1` [Example 380, (Z)-3-{1-[4-(2-piperidinoethylsulphonylamino)-phenylamino]-1-phenyl-methylidene}-2-indolinone] gave a melting point of 225 to 227 °C.
In the case of `O=C1Nc2ccc([N+](=O)[O-])cc2/C1=C(/Nc1ccc(CCNCCO)cc1)c1ccccc1` [Example 256, (Z)-3-{1-[4-(2-(2-hydroxyethylamino)-ethyl)-phenylamino]-1-phenyl-methylidene}-5-nitro-2-indolinone], the melting point is reported as 236 to 238 °C.
For `CC(C)(C)OC(=O)NCc1cccc(N/C(=C2\C(=O)Nc3ccccc32)c2ccccc2)c1` [Example 67, (Z)-3-[1-(3-tert.butoxycarbonylaminomethyl-phenylamino)-1-phenyl-methylidene]-2-indolinone], the melting point was 190 to 195 °C.
`CN(C)Cc1ccc(N/C(=C2\C(=O)Nc3ccccc32)c2ccc(Cl)cc2)cc1` [Example 221, (Z)-3-[1-(4-dimethylaminomethyl-phenylamino)-1-(4-chlorophenyl)-methylidene]-2-indolinone] gave a melting point of 213 °C.
For `CS(=O)(=O)N(CCN1CCOCC1)c1ccc(N/C(=C2\C(=O)Nc3ccccc32)c2ccccc2)cc1` [Example 189, (Z)-3-{1-[4-(N-(2-morpholinoethyl)-N-methylsulphonyl-amino)-phenylamino]-1-phenyl-methylidene}-2-indolinone], the melting point was 249 to 250 °C.
For `COCc1cccc(N/C(=C2\C(=O)Nc3ccccc32)c2ccccc2)c1` [Example 5, (Z)-3-[1-(3-methoxymethyl-phenylamino)-1-phenyl-methylidene]-2-indolinone], the melting point was 182 to 184 °C.
Compound `CCC(=O)Nc1ccc(N/C(=C2\C(=O)Nc3ccccc32)c2ccccc2)cc1` [Example 39, (Z)-3-[1-(4-propionylamino-phenylamino)-1-phenyl-methylidene]-2-indolinone] has a melting point of 255 to 256 °C.
Compound `CCN(CC)CC(=O)N(C)c1ccc(N/C(=C2\C(=O)Nc3ccccc32)c2ccccc2)cc1` [Example 49, (Z)-3-{1-[4-(N-Diethylaminomethylcarbonyl-N-methyl-amino)-phenylamino]-1-phenyl-methylidene}-2-indolinone] has a melting point of 242 to 247 °C.
In the case of `CC(=O)NCCC(=O)N(C)c1ccc(N/C(=C2\C(=O)Nc3ccccc32)c2ccccc2)cc1` [Example 378, (Z)-3-{1-[4-(N-(2-acetylamino-ethylcarbonyl)-N-methyl-amino)-phenylamino]-1-phenyl-methylidene}-2-indolinone], the melting point is reported as 187 to 189 °C.
In the case of `NCc1ccc(/C(Nc2ccccc2)=C2/C(=O)Nc3ccc([N+](=O)[O-])cc32)cc1` [Example 154, (Z)-3-[1-phenylamino-1-(4-aminomethyl-phenyl)-methylidene]-5-nitro-2-indolinone], the melting point is reported as 332 °C (dec.).
Compound `COC(=O)Cc1ccc(N/C(=C2\C(=O)Nc3ccc([N+](=O)[O-])cc32)c2ccccc2)cc1` [Example 180, (Z)-3-[1-(4-methoxycarbonylmethyl-phenylamino)-1-phenyl-methylidene]-5-nitro-2-indolinone] has a melting point of 238 to 240 °C.
With `CCC(=O)N(CC(=O)O)c1ccc(N/C(=C2\C(=O)Nc3ccccc32)c2ccccc2)cc1` [Example 357, (Z)-3-{1-[4-(N-carboxymethyl-N-propionyl-amino)-phenylamino]-1-phenyl-methylidene}-2-indolinone] the melting point was 270 °C (dec.).
In the case of `O=C1Nc2ccc([N+](=O)[O-])cc2/C1=C(/Nc1ccc(CN2CC=CCC2)cc1)c1ccccc1` [Example 270, (Z)-3-{1-[4-(3,6-Dihydro-2H-pyridin-1-ylmethyl)-phenylamino]-1-phenyl-methylidene}-5-nitro-2-indolinone], the melting point is reported as 222 to 225 °C.
Compound `NC(CCO)(CCO)c1ccc(N/C(=C2\C(=O)Nc3ccc([N+](=O)[O-])cc32)c2ccccc2)cc1` [Example 240, (Z)-3-{1-[4-(Bis-(2-hydroxyethyl)-aminomethyl)-phenylamino]-1-phenyl-methylidene}-5-nitro-2-indolinone] has a melting point of 196 to 198 °C.
`CCOC(=O)CCNCc1ccc(N/C(=C2\C(=O)Nc3ccc([N+](=O)[O-])cc32)c2ccccc2)cc1` [Example 241, (Z)-3-{1-[4-(2-ethoxycarbonyl-ethylaminomethyl)-phenylamino]-1-phenyl-methylidene}-5-nitro-2-indolinone] showed a melting point of 129 to 131 °C.
In the case of `Cc1ccc(/C(Nc2ccc(CN(C)C)cc2)=C2/C(=O)Nc3ccccc32)cc1` [Example 211, (Z)-3-[1-(4-dimethylaminomethyl-phenylamino)-1-(p-tolyl)-methylidene]-2-indolinone], the melting point is reported as 208 to 209 °C.
For `O=C1Nc2ccc([N+](=O)[O-])cc2/C1=C(/Nc1ccc(CN2CCCCC2)cc1)c1ccc(C(=O)O)cc1` [Example 445, (Z)-3-[1-(4-piperidinomethyl-phenylamino)-1-(4-carboxyphenyl)-methylidene]-5-nitro-2-indolinone], the melting point was 230 °C.

— US6855710B2, “Substituted indolines with an inhibitory effect on various kinases and complexes of CDKs” (Boehringer Ingelheim Pharma KG, priority 1998, dated 2005)
